In patent publication US11834516B2, “Tumor-specific polypeptide and use thereof” (GENOIMMUNE THERAPEUTICS CO., LTD., priority 2016, dated 2023):

What was measured:
HLA-A0201 = biological target: T1, HLA-A0201 (Homo sapiens, UniProt P04439, D140Y/D185E/D98H/E176V/E277Q/G131W/G231S/I119V/I121R/I166T/I218V/L300P/L318F/N151K/N90K/P208A/P217A/Q86G/Q94H/R138H/R169H/T345S); assay: T2 affinity verification of the polypeptides for HLA-A0201 by flow cytometry; assay type: binding; details: T2 affinity test
T1 construct: T2 cell expresses HLA-A0201; host or cells: T2 cells
Description: 2 duplicate wells per group were used. […] The cells were collected by centrifugation at 200 g for 5 minutes. After the collected cells were washed twice with PBS (Cat. No. 10010-031, GIBCO), the cells were directly incubated with anti-HLA-A 0201 FITC monoclonal antibody and incubated at 4 C for 30 minutes. The mean fluorescence intensity (MFI) was then detected and analyzed by flow cytometry (BD FACSJazz™) and its software, as shown in FIG. 1.
The fluorescence index (FI) is calculated using the following formula: FI=[Mean Fluorescence Intensity (MFI)sample−MFIbackground]/MFIbackground, wherein the MFIbackground represents the value without the polypeptide.

CD8+ T cells [1] = assay: Cell expansion of CD8+ T cells stimulated by polypeptide-loaded DCs in vitro; assay type: cell-based, human; details: day 10 of co-culture of CD8+ T cells with polypeptide-loaded DCs; 2.5 × 10^6 cells before culture
Description: Dendritic cells (DCs) derived from monocytes were used as antigen presenting cells (APCs) to induce CTL responses against peptides presented on HLA. 2×10^8 peripheral blood mononuclear cells (PBMC) were isolated from 100 ml of peripheral blood of healthy volunteers with positive HLA-A0201 subtype using Ficoll lymphocyte separation solution (Cat. No. 17-1440-02, GE Healthcare). Mononuclear cells were obtained by adherent culture (3 hours), and CD8+ T cells in PBMC cells were screened with CD8 magnetic beads. GM-CSF (1000 U/ml) and IL-4 (1000 U/ml) were used to induce adherent monocytes into immature DCs, then IFN-γ (100 U/ml), LPS (10 ng/ml), and the polypeptides of the present invention as set forth in SEQ ID NOs: 2-5 were used to induce adherent cells into mature DC cells. The mature DC cells loaded with the polypeptides were irradiated (dose of 25 Gy) and co-cultured with CD8+ T cells of the volunteers (DC density was 5×10^5 cells/ml, CD8+ T cell density was 2×10^6 cells/ml, both of DCs and CD8+ T cells were mixed in equal volume and added to the well plate, i.e., co-cultured) with IL-21 added, then IL-2 and IL-7 were replenished after 3 days, and then IL-2 and IL-7 were replenished once on day 5 and 7, respectively. Co-cultured cells (co-cultured CD8+ T cells were activated to polypeptide-specific CD8+ T cells) were counted on day 10.

CD8+ T cells [2] = assay: IFN-γ ELISPOTs, activation of CD8+ T cell immune response; assay type: cell-based, human; details: for Number of spots in the mutated polypeptide group / Number of spots in the wild type polypeptide group: CD8+ T cells primed with DCs loaded with the polypeptide, 20 hours; for Number of spots in the mutated polypeptide group: T2 cells loaded with mutated polypeptide; for Number of spots in the wild type polypeptide group: T2 cells loaded with wild type polypeptide KLMGIVNKV; for Conclusion (immunogenicity): IFN-γ ELISPOTs; for Folds (test/wild type): ratio of spot numbers, >2 = immunogenic
Description: The principle of ELISPOTs detection method is that CD8+ T cells can specifically recognize the complex of HLA-A0201 and a polypeptide, and with different polypeptide sequence, the T cell population recognizing the complex of HLA-A0201 and the polypeptide is also different. As T2 cells express HLA-A0201, CD8+ T cells can specifically recognize T2 cells loaded with mutated polypeptides, but cannot recognize T2 cells loaded with wild-type polypeptide. After specifically recognizing the complex of HLA-A0201 and the polypeptide, the polypeptide-specific CD8+ T cells are able to reactivate and secrete IFN-γ. The IFN-γ secreted by activation of CD8+ T cells is captured by a biotin-labeled secondary antibody. It is then bound to alkaline phosphatase or peroxide horseradish oxidase-labeled streptavidin. Spots are formed by the color development of the substrate. The number of spots represents the number of cells that are activated to secrete IFN-γ.
The cells co-cultured in Example 4 and T2 cells loaded with the mutated polypeptides or the wild-type polypeptide were added into human IFN-γ ELISPOTs plates for culture and detection. The spots formed by the ELISPOT test were finally counted. The requirement for the test polypeptide to be immunogenic is as follows: the number of spots (test polypeptide)/the number of spots (wild type polypeptide)>2, that is, the number of spots formed by the test polypeptide is more than twice the number of spots formed by the wild type polypeptide.
The cells co-cultured in Example 4 and T2 cells loaded with the mutated polypeptide […] (SEQ ID NO: 2) and its variable formats (SEQ ID NOs: 2-5) and the wild type polypeptide […] (SEQ ID NO: 6) were added into human IFN-γ ELISPOTs plates for culture, and subjected to ELISPOTs test (Mabtech, Cat. No. 3420-4APW-2) 20 hours later.

T2 cells = assay: LDH release assay, specific killing activity of CD8+ T cells; assay type: cell-based, human; parameters: concentration or dose not given beside the values; details: T cells activated by the labelled polypeptide, 4 hours
Description: The following experiment was carried out according to the instructions of Pierce™ LDH Cytotoxicity Assay Kit (Thermo, Cat. No. 88953). The co-cultured cells in Example 4 were co-cultured with T2 cells loaded with mutated polypeptides or wild-type polypeptide or T2 cells without any loaded polypeptides. In the experiment, the maximum release well, the volume correction well, the medium control well, the spontaneous release well, the control of different ratios of effective cells to target cells (the ratio of the number of T cells to the T2 cell) and the like were set, and three duplicate wells were set in each group, and after 4 hours, 50 ul of the supernatant of the co-cultured cells was collected and added to 50 ul of LDH substrate mixture to catalyze the reaction of LDH substrate. After 30 minutes, 50 ul of reaction stop solution was added and read the 490 nm wavelength and the reference wavelength of 680 nm, and the killing activity of target cells against T2 cells were calculated based on the control wells.
The formula for calculating the killing activity is: Killing efficiency (%)=(test well−spontaneous release of effector cell−spontaneous release of target cell+medium well)/(maximum release of target cell−volume correction well−spontaneous release of target cell+medium well)×100%

[3] = test system: H2087-KLMGIVYKV subcutaneous tumor; assay: Lentivirus (nucleic acid) transfected DC vaccine in H2087-[…] subcutaneous tumor model; assay type: in vivo, NOD/SCID mice; details: lentivirus-infected DC, intradermal, 2 weekly injections
Description: Using automated DNA synthesizer, nucleotide sequences were synthesized by ligating nucleotides one by one based on a known sequence utilizing solid phase phosphite amide method. […] The lentiviral plasmids pHBLV-Puro containing the wild type polypeptide or the mutated polypeptides were separately constructed and named as pHBLV-Puro-[…], pHBLV-Puro-[…], pHBLV-Puro-[…], pHBLV-Puro-[…], pHBLV-Puro-[…], respectively. Thereafter, the five lentiviral plasmids were co-transfected into T293 cells with the pSPAX2 and pMD2G helper plasmids, respectively, and were packaged into lentiviruses containing the wild type polypeptide or the mutated polypeptides.
The established human lung (non-small cell) adenocarcinoma cell line H2087-[…] cells were cultured in DMEM medium supplemented with 10% fetal calf serum, 100 U/mL penicillin and streptomycin in an incubator at 37° C., 5% CO2. […] After appropriate dilution, 40 μl of the cell suspension was stained with 10 μl of 0.4% Trypan Blue and microscopically counted to prepare a tumor cell suspension at a concentration of 1×10^8 cells/ml. […] Using the vernier caliper, the tumor long diameter a and the short diameter b were measured every 2-3 days, and the tumor size was calculated as follows: tumor size=a*b*b/2. […]

[4] = target T2 loaded with KLMGIVYKV (SEQ ID NO: 2)
[5] = target T2 loaded with wild type KLMGIVNKV (SEQ ID NO: 6)

Row | Sequence | affinity for HLA-A0201 (HLA-A0201) | Total number of cells in the well after culture (CD8+ T cells [1]) | Number of spots in the mutated polypeptide group (CD8+ T cells [2]) | Number of spots in the wild type polypeptide group (CD8+ T cells [2]) | Conclusion (immunogenicity) (CD8+ T cells [2]) | Folds (test/wild type) (CD8+ T cells [2]) | Killing efficiency, ratio of effective cells to target cells (1:1) (T2 cells; [4]) | Killing efficiency, ratio of effective cells to target cells (10:1) (T2 cells; [4]) | Killing efficiency, ratio of effective cells to target cells (1:1) (T2 cells; [5]) | Killing efficiency, ratio of effective cells to target cells (10:1) (T2 cells; [5]) | tumor suppressing effect [3]
1 | KLMGIVNKV [wild-type peptide fragment, amino acids 130-138 of the unmutated Twist neighbor protein] | – | – | – | – | – | – | – | – | – | – | no effect on the tumor
2 | KMMGIVYKV | enhanced affinity for HLA-A0201 | 1.37 × 10^7 | 323 | 37 | immunogenic | 8.73 | – | – | – | – | –

More lines, main results first:

Row | affinity for HLA-A0201 (HLA-A0201) | Sequence | Total number of cells in the well after culture (CD8+ T cells [1]) | Number of spots in the mutated polypeptide group (CD8+ T cells [2]) | Number of spots in the wild type polypeptide group (CD8+ T cells [2]) | Conclusion (immunogenicity) (CD8+ T cells [2]) | Folds (test/wild type) (CD8+ T cells [2]) | Killing efficiency, ratio of effective cells to target cells (1:1) (T2 cells; [4]) | Killing efficiency, ratio of effective cells to target cells (10:1) (T2 cells; [4]) | Killing efficiency, ratio of effective cells to target cells (1:1) (T2 cells; [5]) | Killing efficiency, ratio of effective cells to target cells (10:1) (T2 cells; [5]) | tumor suppressing effect [3]
3 | does have a high affinity for HLA-A0201 | KLMGIVYKV [9-amino-acid mutated TWIST Neighbor protein peptide (N136Y)] | 1.32 × 10^7 | 316 | 31 | immunogenic | 10.01 | 7.69% | 38.29% | 2.33% | 5.03% | –
4 | enhanced affinity for HLA-A0201 | KMMGIVYKL | 1.46 × 10^7 | 328 | 29 | immunogenic | 11.31 | 8.29% | 42.26% | 3.25% | 6.23% | –
5 | enhanced affinity for HLA-A0201 | KLMGIVYKL | 1.63 × 10^7 | 335 | 40 | immunogenic | 8.34 | 8.76% | 44.52% | 2.17% | 4.63% | –
